Experimental data from ChEMBL document CHEMBL1201862, “PubChem BioAssay data set” (2004).
Activity calls are given as the source filed them.

What was measured:
[1] = Trypanosoma cruzi growth suppression in host cells – NIH3T3 host cells, beta-gal luminescence, confirmation (AID 2044); format: functional, cell-based;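 note: intracellular parasites grown in NIH/3T3 mouse fibroblasts as host cells; luminescent beta-galactosidase reporter signal from transgenic T. cruzi replicating inside host cells; inhibitors lower the luminescence signal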
[2] = NIH3T3 cell viability loss – ATP luminescence, mouse fibroblasts, counter-screen, dose response (AID 2010); format: functional, cell-based;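 note: cells exposed to compound for about 90 hours before reading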
[3] = target: T1, High affinity choline transporter 1 (Homo sapiens, UniProt Q9GZV3); experiment: human choline transporter blockers, potency – cell-based, 5-point CRC, membrane potential dye, dose response (AID 504840); format: functional
T1 sequence (Q9GZV3 whole entry): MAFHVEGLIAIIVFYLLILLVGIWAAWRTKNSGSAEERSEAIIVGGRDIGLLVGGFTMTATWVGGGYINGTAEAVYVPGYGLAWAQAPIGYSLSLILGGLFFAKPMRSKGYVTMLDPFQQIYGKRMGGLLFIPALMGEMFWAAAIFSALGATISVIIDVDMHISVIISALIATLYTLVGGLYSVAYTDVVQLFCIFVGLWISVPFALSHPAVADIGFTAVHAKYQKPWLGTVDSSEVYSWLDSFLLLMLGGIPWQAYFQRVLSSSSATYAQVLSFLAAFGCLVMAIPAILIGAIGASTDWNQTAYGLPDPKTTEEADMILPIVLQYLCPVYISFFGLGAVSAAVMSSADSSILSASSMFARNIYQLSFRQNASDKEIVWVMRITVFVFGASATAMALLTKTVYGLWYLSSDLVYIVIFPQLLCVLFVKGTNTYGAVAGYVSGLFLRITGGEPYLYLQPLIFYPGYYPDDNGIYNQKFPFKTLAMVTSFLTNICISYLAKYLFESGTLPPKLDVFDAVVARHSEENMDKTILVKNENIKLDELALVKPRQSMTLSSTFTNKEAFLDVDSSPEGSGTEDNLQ

[4] = target: T1, High affinity choline transporter 1; experiment: human choline transporter blockers, potency – cell-based, 10-point CRC, membrane potential dye, dose response (AID 588401); format: functional;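 note: membrane potential dye fluorescence of choline-evoked depolarization via CHT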
[5] = target: Melanin-concentrating hormone receptor 1 (Homo sapiens, UniProt Q99705); experiment: Late-stage fluorescence-based counterscreen for antagonists of the G-protein coupled receptor 7 (GPR7): cell-based dose response assay to identify antagonists of the melanin-concentrating hormone receptor 1 (MCHR1) Set 6.; format: functional
Chain of Melanin-concentrating hormone receptor 1 (Q99705 whole entry): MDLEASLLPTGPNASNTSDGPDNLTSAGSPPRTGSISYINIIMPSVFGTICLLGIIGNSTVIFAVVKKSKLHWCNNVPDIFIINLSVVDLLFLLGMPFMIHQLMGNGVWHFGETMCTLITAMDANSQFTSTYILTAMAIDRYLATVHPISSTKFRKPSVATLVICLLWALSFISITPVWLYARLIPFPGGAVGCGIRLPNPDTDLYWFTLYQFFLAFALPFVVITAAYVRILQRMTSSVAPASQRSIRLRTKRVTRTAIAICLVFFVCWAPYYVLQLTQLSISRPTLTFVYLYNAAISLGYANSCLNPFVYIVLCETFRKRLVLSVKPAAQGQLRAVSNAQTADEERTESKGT

[6] = target: Neuropeptides B/W receptor type 1 (Homo sapiens, UniProt P48145); experiment: human NPBW1 receptor blockade, IC50 – cell-based, fluorescence, dose response, set 6, late-stage follow-up (AID 588583); format: functional
[7] = target: Ribosomal protein S6 kinase alpha-3 (Homo sapiens, UniProt P51812); format: functional;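 note: measured within a kinome-wide profiling panel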
[8] = target: Tyrosine-protein kinase JAK2 (Homo sapiens, UniProt O60674); format: functional;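 note: JAK2 tested as one member of a kinase panel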
[9] = target: Protein kinase C zeta type (Homo sapiens, UniProt Q05513); format: functional;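 note: measured as one member of a broad kinase profiling panel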
[10] = target: Serine/threonine-protein kinase PLK3 (Homo sapiens, UniProt Q9H4B4); format: functional
[11] = target: RAC-gamma serine/threonine-protein kinase (Homo sapiens, UniProt Q9Y243); format: functional
[12] = target: 5'-AMP-activated protein kinase catalytic subunit alpha-1 (Homo sapiens, UniProt Q13131); format: functional
[13] = target: Protein kinase C delta type (Homo sapiens, UniProt Q05655); format: functional
[14] = target: Serine/threonine-protein kinase PLK4 (Homo sapiens, UniProt O00444); format: functional;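 note: PLK4 measured as one member of a kinome-wide kinase profiling panel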
[15] = target: Ribosomal protein S6 kinase beta-1 (Homo sapiens, UniProt P23443); format: functional;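 note: measured as one member of a kinome-wide profiling panel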
Chain of Ribosomal protein S6 kinase beta-1 (P23443 whole entry): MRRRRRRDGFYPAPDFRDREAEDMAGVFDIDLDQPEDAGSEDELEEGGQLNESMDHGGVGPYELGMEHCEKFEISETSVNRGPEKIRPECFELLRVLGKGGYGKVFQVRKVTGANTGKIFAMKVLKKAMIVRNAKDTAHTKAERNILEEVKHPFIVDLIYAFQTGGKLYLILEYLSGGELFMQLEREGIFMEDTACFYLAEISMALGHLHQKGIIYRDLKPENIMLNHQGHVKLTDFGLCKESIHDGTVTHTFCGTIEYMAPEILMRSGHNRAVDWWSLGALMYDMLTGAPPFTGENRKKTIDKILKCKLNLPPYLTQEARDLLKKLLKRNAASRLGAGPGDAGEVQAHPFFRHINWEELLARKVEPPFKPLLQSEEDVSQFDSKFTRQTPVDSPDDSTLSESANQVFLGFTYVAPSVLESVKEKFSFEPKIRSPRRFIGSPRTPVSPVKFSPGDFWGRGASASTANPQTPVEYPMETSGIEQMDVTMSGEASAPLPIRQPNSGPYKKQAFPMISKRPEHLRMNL

[16] = target: Death-associated protein kinase 3 (Homo sapiens, UniProt O43293); format: functional;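 note: measured as one member of a kinome-wide profiling panel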
[17] = target: Serine/threonine-protein kinase Chk2 (Homo sapiens, UniProt O96017); format: functional;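 note: CHEK2 entry within a kinome-wide screening panel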
[18] = target: Mitogen-activated protein kinase 8 (Homo sapiens, UniProt P45983); format: functional;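 note: value comes from one member of a kinome-wide kinase profiling panel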
Chain of Mitogen-activated protein kinase 8 (P45983 whole entry): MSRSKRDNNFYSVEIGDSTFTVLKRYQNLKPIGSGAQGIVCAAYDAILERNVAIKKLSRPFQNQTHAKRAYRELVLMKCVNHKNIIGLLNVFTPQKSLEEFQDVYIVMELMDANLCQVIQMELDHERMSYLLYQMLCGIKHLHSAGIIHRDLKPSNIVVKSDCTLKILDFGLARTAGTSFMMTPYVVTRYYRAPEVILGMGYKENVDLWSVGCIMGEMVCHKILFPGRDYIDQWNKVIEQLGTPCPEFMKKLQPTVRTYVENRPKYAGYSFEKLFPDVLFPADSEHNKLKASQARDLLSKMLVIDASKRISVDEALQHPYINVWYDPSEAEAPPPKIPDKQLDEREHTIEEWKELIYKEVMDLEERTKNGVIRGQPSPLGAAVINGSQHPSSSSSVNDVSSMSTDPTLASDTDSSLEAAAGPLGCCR

[19] = target: Serine/threonine-protein kinase pim-1 (Homo sapiens, UniProt P11309); format: functional
Aurora kinase A = Aurora kinase A (Homo sapiens, UniProt O14965); format: functional;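 note: value from the Navigating the Kinome kinase panel profiling, panel entry STK6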
Chain of Aurora kinase A (O14965 whole entry): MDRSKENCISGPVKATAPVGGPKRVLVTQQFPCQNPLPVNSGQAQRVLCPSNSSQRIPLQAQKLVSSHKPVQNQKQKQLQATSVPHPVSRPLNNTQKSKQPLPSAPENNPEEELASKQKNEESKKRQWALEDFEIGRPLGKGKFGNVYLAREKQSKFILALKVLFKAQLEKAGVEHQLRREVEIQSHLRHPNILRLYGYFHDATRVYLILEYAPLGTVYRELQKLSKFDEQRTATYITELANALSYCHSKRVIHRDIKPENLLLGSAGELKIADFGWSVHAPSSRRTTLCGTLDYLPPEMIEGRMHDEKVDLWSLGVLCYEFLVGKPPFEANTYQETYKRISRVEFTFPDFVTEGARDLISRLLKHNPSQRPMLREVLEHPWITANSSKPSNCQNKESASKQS

[20] = target: MAP kinase-activated protein kinase 2 (Homo sapiens, UniProt P49137); format: functional;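 note: measured as one member of a kinome-wide kinase panel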
[21] = target: Casein kinase II subunit alpha (Homo sapiens, UniProt P68400); format: functional
[22] = target: Serine/threonine-protein kinase PAK 4 (Homo sapiens, UniProt O96013); format: functional;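 note: value obtained within a kinome profiling panel in which PAK4 was one of the panel members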
[23] = target: Serine/threonine-protein kinase PAK 1 (Homo sapiens, UniProt Q13153); format: functional
[24] = target: Fibroblast growth factor receptor 1 (Homo sapiens, UniProt P11362); format: functional
[25] = target: Tyrosine-protein kinase JAK3 (Homo sapiens, UniProt P52333); format: functional
[26] = target: Mitogen-activated protein kinase 9 (Homo sapiens, UniProt P45984); format: functional;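 note: value from a kinome panel profiling assay, MAPK9 panel entry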
LIM domain kinase 1 = LIM domain kinase 1 (Homo sapiens, UniProt P53667); experiment: Navigating the Kinome. Panel member name: LIMK1; format: functional
[27] = target: Tyrosine-protein kinase Blk (Homo sapiens, UniProt P51451); format: functional;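 note: obtained as one member of a kinome-wide kinase assay panel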
[28] = target: MAP/microtubule affinity-regulating kinase 3 (Homo sapiens, UniProt P27448); format: functional;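 note: MARK3 affinity measured as one member of a kinome panel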
Insulin receptor = Insulin receptor (Homo sapiens, UniProt P06213); format: functional;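 note: insulin receptor kinase tested as one member of a kinome-wide kinase panel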
[29] = target: Protein kinase C gamma type (Homo sapiens, UniProt P05129); format: functional
[30] = target: Proto-oncogene tyrosine-protein kinase Src (Homo sapiens, UniProt P12931); format: functional;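 note: SRC entry within a kinome-wide kinase profiling panel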
[31] = target: Glycogen synthase kinase-3 alpha (Homo sapiens, UniProt P49840); format: functional;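 note: GSK3A result taken from a broad kinome-wide kinase panel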
[32] = target: Inhibitor of nuclear factor kappa-B kinase subunit alpha (Homo sapiens, UniProt O15111); format: functional
[33] = target: MAP kinase-activated protein kinase 3 (Homo sapiens, UniProt Q16644); format: functional;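 note: value comes from a kinome-wide profiling panel in which MAPKAPK3 is one of the panel members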
[34] = target: Serine/threonine-protein kinase Chk1 (Homo sapiens, UniProt O14757); format: functional;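 note: measured as one member of a kinome-wide kinase profiling panel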
Chain of Serine/threonine-protein kinase Chk1 (O14757 whole entry, canonical isoform): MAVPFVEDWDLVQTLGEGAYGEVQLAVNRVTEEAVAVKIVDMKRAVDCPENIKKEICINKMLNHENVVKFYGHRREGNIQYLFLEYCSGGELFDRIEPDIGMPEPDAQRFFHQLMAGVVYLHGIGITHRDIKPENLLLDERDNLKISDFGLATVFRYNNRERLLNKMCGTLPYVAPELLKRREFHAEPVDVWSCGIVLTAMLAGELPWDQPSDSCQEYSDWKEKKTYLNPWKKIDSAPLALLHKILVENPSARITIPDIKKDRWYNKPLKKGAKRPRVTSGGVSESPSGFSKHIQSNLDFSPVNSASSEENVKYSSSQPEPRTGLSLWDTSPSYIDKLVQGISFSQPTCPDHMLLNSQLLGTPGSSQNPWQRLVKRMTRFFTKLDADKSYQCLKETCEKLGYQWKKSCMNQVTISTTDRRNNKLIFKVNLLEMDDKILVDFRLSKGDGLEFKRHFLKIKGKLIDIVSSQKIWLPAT

[35] = target: Casein kinase I isoform delta (Homo sapiens, UniProt P48730); format: functional;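 note: measured as one member (CSNK1D) of a kinome panel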
[36] = target: Vascular endothelial growth factor receptor 2 (Homo sapiens, UniProt P35968); format: functional
[37] = target: Cyclin-dependent kinase 5 (Homo sapiens, UniProt Q00535); format: functional;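 note: CDK5 measured as one member of a kinase profiling panel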
Chain of Cyclin-dependent kinase 5 (Q00535 whole entry): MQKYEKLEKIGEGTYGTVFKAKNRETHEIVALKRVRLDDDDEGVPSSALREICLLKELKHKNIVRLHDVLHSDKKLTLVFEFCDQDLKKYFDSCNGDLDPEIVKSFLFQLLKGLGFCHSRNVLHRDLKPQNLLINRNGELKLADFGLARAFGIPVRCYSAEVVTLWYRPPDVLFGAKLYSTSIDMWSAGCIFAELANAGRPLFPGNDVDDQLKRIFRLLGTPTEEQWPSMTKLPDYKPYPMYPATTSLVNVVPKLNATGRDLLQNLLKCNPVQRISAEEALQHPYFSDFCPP

[38] = target: Mitogen-activated protein kinase 1 (Homo sapiens, UniProt P28482); format: functional
Chain of Mitogen-activated protein kinase 1 (P28482 whole entry): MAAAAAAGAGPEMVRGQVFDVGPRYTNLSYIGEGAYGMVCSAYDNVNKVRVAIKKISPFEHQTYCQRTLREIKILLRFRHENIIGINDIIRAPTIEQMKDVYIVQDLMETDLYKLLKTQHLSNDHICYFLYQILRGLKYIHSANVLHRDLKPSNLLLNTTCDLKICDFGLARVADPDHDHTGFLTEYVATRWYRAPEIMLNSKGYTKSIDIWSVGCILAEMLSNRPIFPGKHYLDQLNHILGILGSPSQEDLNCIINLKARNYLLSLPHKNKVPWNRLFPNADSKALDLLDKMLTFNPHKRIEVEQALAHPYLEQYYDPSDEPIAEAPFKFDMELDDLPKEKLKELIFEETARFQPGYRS

Aurora kinase B = Aurora kinase B (Homo sapiens, UniProt Q96GD4); format: functional
[39] = target: Interleukin-1 receptor-associated kinase 4 (Homo sapiens, UniProt Q9NWZ3); format: functional
Chain of Interleukin-1 receptor-associated kinase 4 (Q9NWZ3 whole entry): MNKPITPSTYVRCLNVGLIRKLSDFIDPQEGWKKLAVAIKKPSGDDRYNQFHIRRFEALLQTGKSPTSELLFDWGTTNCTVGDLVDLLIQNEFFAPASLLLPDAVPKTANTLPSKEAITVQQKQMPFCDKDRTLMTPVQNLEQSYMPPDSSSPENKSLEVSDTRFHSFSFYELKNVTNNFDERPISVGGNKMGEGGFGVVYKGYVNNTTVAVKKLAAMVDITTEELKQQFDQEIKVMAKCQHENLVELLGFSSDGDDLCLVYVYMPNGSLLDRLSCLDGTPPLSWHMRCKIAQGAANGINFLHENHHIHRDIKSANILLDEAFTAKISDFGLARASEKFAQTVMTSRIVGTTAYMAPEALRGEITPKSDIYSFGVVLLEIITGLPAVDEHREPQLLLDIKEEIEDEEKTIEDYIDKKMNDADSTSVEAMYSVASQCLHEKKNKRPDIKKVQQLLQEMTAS

[40] = target: RAC-alpha serine/threonine-protein kinase (Homo sapiens, UniProt P31749); format: functional;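 note: AKT1 affinity measured as one member of a kinome-wide kinase profiling panel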
[41] = target: Vascular endothelial growth factor receptor 3 (Homo sapiens, UniProt P35916); format: functional;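 note: value from a kinome-wide profiling panel, with FLT4 as the panel member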
[42] = target: Rho-associated protein kinase 1 (Homo sapiens, UniProt Q13464); format: functional;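 note: measured within a broad kinome-wide panel profiling many kinases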
[43] = target: Calcium/calmodulin-dependent protein kinase type 1 (Homo sapiens, UniProt Q14012); format: functional
[44] = target: Cyclin-dependent kinase 1 (Homo sapiens, UniProt P06493); format: functional;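 note: Kinome-wide panel profiling, with the target listed as panel member CDC2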
Chain of Cyclin-dependent kinase 1 (P06493 whole entry): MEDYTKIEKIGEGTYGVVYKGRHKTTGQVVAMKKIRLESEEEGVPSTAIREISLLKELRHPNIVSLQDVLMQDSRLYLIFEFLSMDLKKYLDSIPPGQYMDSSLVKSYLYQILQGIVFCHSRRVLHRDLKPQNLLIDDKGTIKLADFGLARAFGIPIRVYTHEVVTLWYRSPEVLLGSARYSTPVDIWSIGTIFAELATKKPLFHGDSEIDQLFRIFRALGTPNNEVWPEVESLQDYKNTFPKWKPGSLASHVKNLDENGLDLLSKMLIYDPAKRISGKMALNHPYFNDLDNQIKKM

[45] = target: 3-phosphoinositide-dependent protein kinase 1 (Homo sapiens, UniProt O15530); format: functional;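 note: value comes from the Navigating the Kinome panel, PDPK1 member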
[46] = target: Serine/threonine-protein kinase Nek2 (Homo sapiens, UniProt P51955); format: functional
[47] = target: Serine/threonine-protein kinase PLK1 (Homo sapiens, UniProt P53350); format: functional;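 note: PLK1 measured as one member of a kinome-wide profiling panel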
[48] = target: Glycogen synthase kinase-3 beta (Homo sapiens, UniProt P49841); format: functional;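 note: value comes from a broad kinome profiling panel, with GSK3B as the panel member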
[49] = target: BDNF/NT-3 growth factors receptor (Homo sapiens, UniProt Q16620); format: functional;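 note: NTRK2 measured as one member of a broad kinome-wide kinase profiling panel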
[50] = target: Receptor tyrosine-protein kinase erbB-4 (Homo sapiens, UniProt Q15303); format: functional;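 note: ERBB4 member of a kinome-wide kinase profiling panel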
[51] = target: cAMP-dependent protein kinase catalytic subunit alpha (Homo sapiens, UniProt P17612); format: functional
[52] = target: Mitogen-activated protein kinase 12 (Homo sapiens, UniProt P53778); format: functional;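 note: measured as one member of a kinome-wide kinase profiling panel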
Chain of Mitogen-activated protein kinase 12 (P53778 whole entry): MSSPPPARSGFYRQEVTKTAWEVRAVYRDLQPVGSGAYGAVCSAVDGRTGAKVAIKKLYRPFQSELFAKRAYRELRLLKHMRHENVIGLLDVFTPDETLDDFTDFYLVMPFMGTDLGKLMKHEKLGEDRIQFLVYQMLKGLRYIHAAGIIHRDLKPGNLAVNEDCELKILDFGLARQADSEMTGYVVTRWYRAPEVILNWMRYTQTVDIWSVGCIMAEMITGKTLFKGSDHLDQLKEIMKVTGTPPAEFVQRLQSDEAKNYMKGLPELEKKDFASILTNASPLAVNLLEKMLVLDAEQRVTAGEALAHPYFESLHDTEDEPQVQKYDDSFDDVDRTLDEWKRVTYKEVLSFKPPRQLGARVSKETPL

[53] = target: Serine/threonine-protein kinase MRCK alpha (Homo sapiens, UniProt Q5VT25); format: functional
[54] = target: Dual specificity tyrosine-phosphorylation-regulated kinase 1A (Homo sapiens, UniProt Q13627); format: functional;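 note: measured against DYRK1A as one member of a broad kinome profiling panel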
[55] = target: Inhibitor of nuclear factor kappa-B kinase subunit beta (Homo sapiens, UniProt O14920); format: functional
Chain of Inhibitor of nuclear factor kappa-B kinase subunit beta (O14920 whole entry): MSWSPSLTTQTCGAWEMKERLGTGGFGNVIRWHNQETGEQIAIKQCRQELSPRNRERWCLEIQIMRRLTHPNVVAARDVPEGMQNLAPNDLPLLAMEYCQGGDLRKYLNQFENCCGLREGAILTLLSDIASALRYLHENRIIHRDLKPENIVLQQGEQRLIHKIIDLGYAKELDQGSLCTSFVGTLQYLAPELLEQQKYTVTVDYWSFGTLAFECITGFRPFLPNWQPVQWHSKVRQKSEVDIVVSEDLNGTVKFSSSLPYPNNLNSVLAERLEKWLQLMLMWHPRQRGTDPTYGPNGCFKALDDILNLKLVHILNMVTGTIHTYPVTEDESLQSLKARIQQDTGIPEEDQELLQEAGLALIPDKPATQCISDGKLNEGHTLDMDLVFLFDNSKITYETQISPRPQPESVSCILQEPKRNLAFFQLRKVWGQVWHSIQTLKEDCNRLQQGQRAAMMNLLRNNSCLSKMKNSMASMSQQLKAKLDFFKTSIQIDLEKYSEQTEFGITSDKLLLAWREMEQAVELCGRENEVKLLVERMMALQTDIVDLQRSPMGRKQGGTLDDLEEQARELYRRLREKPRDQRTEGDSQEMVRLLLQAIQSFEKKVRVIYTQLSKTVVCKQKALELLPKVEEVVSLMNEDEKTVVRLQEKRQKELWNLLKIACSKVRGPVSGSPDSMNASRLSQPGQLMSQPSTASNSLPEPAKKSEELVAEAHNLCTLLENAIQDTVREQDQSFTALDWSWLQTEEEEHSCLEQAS

[56] = target: Serine/threonine-protein kinase 3 (Homo sapiens, UniProt Q13188); format: functional;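 note: measured as one member of a kinome-wide kinase panel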

CCOCCCN(C)C1CCN(C(=O)c2oc3ccccc3c2NC(=O)c2ccc(F)cc2)CC1
EC50 [1]: 0.267 µM (active) | EC50 [2]: > 60 µM (not active) | IC50 [3]: 6.85 µM (active) | IC50 [4]: 6.69 µM (active)

Cc1ccccc1C(C#N)c1c(Cl)cnn(Cc2cccc3ccccc23)c1=O (stereo not given)
IC50 [5]: 0.821 µM (active) | IC50 [6]: 0.821 µM (active)

CCCCCCCCCCCCOc1ccc(NC(=N)N)cc1NC(=N)N [LAUROGUADINE]
Ki [7]: 3.98 µM (active) | Ki [8]: 1 µM (active) | Ki [9]: 1.26 µM (active) | Ki [10]: > 7.94 µM (inactive) | Ki [11]: > 10 µM (inactive) | Ki [12]: > 10 µM (inactive) | Ki [13]: 0.631 µM (active) | Ki [14]: > 3.98 µM (inactive) | Ki [15]: 1.26 µM (active) | Ki [16]: 0.316 µM (active) | Ki [17]: > 10 µM (inactive) | Ki [18]: > 3.16 µM (inactive) | Ki [19]: 1.26 µM (active) | Ki (Aurora kinase A): > 6.31 µM (inactive) | Ki [20]: 3.98 µM (active) | Ki [21]: > 6.31 µM (inactive) | Ki [22]: > 5.01 µM (inactive) | Ki [23]: 1.26 µM (active) | Ki [24]: > 5.01 µM (inactive) | Ki [25]: 0.794 µM (active) | Ki [26]: > 3.98 µM (inactive) | Ki (LIM domain kinase 1): 2 µM (active) | Ki [27]: 1 µM (active) | Ki [28]: > 6.31 µM (inactive) | Ki (Insulin receptor): > 5.01 µM (inactive) | Ki [29]: 2.51 µM (active) | Ki [30]: > 5.01 µM (inactive) | Ki [31]: > 7.94 µM (inactive) | Ki [32]: 1.26 µM (active) | Ki [33]: 1.58 µM (active) | Ki [34]: > 7.94 µM (inactive) | Ki [35]: > 7.94 µM (inactive) | Ki [36]: > 7.94 µM (inactive) | Ki [37]: > 10 µM (inactive) | Ki [38]: > 7.94 µM (inactive) | Ki (Aurora kinase B): > 6.31 µM (inactive) | Ki [39]: 3.98 µM (active) | Ki [40]: 3.98 µM (active) | Ki [41]: > 6.31 µM (inactive) | Ki [42]: 2.51 µM (active) | Ki [43]: 3.98 µM (active) | Ki [44]: 3.98 µM (active) | Ki [45]: > 3.98 µM (inactive) | Ki [46]: > 10 µM (inactive) | Ki [47]: > 7.94 µM (inactive) | Ki [48]: > 6.31 µM (inactive) | Ki [49]: 2 µM (active) | Ki [50]: 1.58 µM (active) | Ki [51]: > 7.94 µM (inactive) | Ki [52]: > 6.31 µM (inactive) | Ki [53]: 2.51 µM (active) | Ki [54]: > 6.31 µM (inactive) | Ki [55]: > 3.16 µM (inactive) | Ki [56]: 3.98 µM (active)
